The values below come from patent US6589570B1, “Pharmaceutical formulation useful for the treatment of hepatitis B, hepatitis C and other viral infections of the liver and a process for its preparation” (priority 1999, dated 2003).

One data set concerns cultured rat hepatocytes. Particulars: cited from earlier work.
The test system of the next data set is isolated rat hepatocytes. In words: Anti hepatotoxic potential, β-galactosamine challenged isolated rat hepatocytes. Particulars: 0.5 mM. Type of data set: cell-based. The procedure:
The liver was perfused through the portal vein with 30-50 ml of cold sodium citrate (0.027M) in calcium free lockets solution. During the perfusion, the liver gets blanched and fully distended. Perfusion is generally completed within 5 minutes of anaesthetizing the animal. The perfused liver is excised and washed well with the perfusion fluid and pressed in folds of sterile filter paper, weighed and cut into several small pieces and with a pair of scissors. A known wet weight of the liver (usually between 2-6 gm) was transferred with 5 volume of cold 0.25M sucrose into a sterile glass homogenizer and finely grounded. The cell suspension was filtered once, without application of pressure through 200-mesh brass gauze to remove strands of connective tissue and clumps of cells. The suspension contained some cell debris and blood cells at this stage, which were removed by centrifugation at a low speed (100-200 g) for 2 minutes. After removal of the supernatant, the cell sediment was resuspended in a known volume of the minimum essential medium for further studies. […] The cells, which have not taken the dye, are live cells, which are counted. […] Four sets of isolated rat hepatocyte cultures were put up. […] Set III with 0.5 mM concentration of β-galactosamine, a known hepatotoxic agent and set IV was treated with β-galactosamine and then protected with the formulation of the present invention. […]

As to `COC[C@@H](Cc1ccc(OC)c(OC)c1)[C@@H](COC)Cc1ccc(OC)c(OC)c1` [Phyllanthin], in the data set on cultured rat hepatocytes, the “CCl4 or galatosamine induced cytotoxicity to cultured rat hepatocytes” value is “reduced”.
`COC[C@@H]1Cc2cc(OC)c3c(c2[C@H](c2ccc(OC)c(OC)c2)[C@H]1COC)OCO3` [Hypo phyllanthin]: in the data set on cultured rat hepatocytes, the “CCl4 or galatosamine induced cytotoxicity to cultured rat hepatocytes” value was “reduced”.
`N[C@@H]1[C@@H](O)[C@@H](O)[C@@H](CO)O[C@H]1O` [β-galactosamine]: the “hepatotoxicity on isolated rat hepatocytes” value with isolated rat hepatocytes is “profound hepatotoxic chemical”.
